According to patent publication US9095591B2, “Pharmaceutical composition for use in the treatment of glaucoma” (Institut National de la Sante et de la Recherche Medicale …, priority 2010, dated 2015):
“Also recorded” adds a separate entry of the source.

Experiments:
[1] = tested on: rat model of surgically-induced glaucoma; test: Intraocular pressure (IOP, TonoPen) in rat model of surgically-induced glaucoma (episcleral vein cauterization); type: in vivo, Brown Norway rats; conditions: for effect on IOP in control (nonglaucomatous, non-operated) eyes: subconjunctival injection; for effect on IOP in glaucomatous eyes (CXCR4 antagonist comparison): subconjunctival injections, FIG. 3
Procedure: In order to test the functionality of putative CXCR3 blocking compounds on intraocular pressure (IOP), an in vivo test is necessary. For that purpose a model of local eye hypertonia is highly relevant. The model of ocular hypertonia in rats by episcleral vein occlusion (Garcia-Valenzuela et al., 1995) as described in the figures can be used to test such molecules.
Subconjunctival injections of NBI74330 (1 μM) or vehicle were performed in glaucoma eyes and in control eyes. One single injection of NBI (A) induced a reduction in IOP during 3 days (p<0.001). Two injections of NBI (A and B) induced a decrease in IOP during 12 days (p<0.001). […] (In vivo measurements of the IOP using TonoPen).
Male 8-week-old Brown Norway rats weighing 300-400 g were housed in Jussieu animal house (UMRS968, Vision Institute, Paris, France). All experiments were conducted in accordance with the Association for Research in Vision and Ophthalmology for the Use of Animals in Ophthalmic research. Ocular integrity was checked using slit lamp biomicroscope. Surgical model of elevated IOP was induced in the right eye of each rat by cauterization of three episcleral veins after conjunctival dissection as previously reported [Bayer A U et Al., 2001 and Garcia-Valenzuela E et Al., 1995] under general anaesthesia (intra peritoneal injection of ketamine 75 mg/kg and xylazine 10 mg/kg). Left eyes underwent conjunctival dissection only as controls. After the surgery, animals were maintained for a 1-month period and monitored for IOP three times a week using a handheld tonometer (Tonopen, Medtronics, Jacksonville, Fla.) without sedation. 30 animals presenting a stable elevated IOP were included and randomly divided in three equal groups: in both eyes, 10 rats received one subconjunctival injection of NBI74330 (1 μM, 100 μl), […], and 10 rats received a vehicle injection (PBS, 100 μl). IOP was monitored every two days by one independent person i.e. who was blind of the treatment. At the end of the experiments, animals were euthanized and the eyes were immediately conditioned for IHC.

[2] = tested on: rat model of surgically-induced glaucoma; test: Aqueous humor outflow by in vivo fluorophotometry in rat glaucoma model; design: species or system Brown Norway rats; conditions: glaucomatous eyes vs vehicle-treated; 1 μM, 100 μL, two subconjunctival injections
Procedure: (§1) Aqueous humor outflow was measured by in vivo fluorophotometry (FIG. 4A) and the trabecular aqueous outflow evaluated by fluorescent microsphere injection and ex vivo confocal imaging of TMs (data not shown). […] In parallel, rat TM tissues were assessed for cellularity and apoptosis by immunohistofluorescence and TUNEL-labeling.

[3] = tested on: trabecular meshwork; test: Trabecular percent effective filtration length (fluorescent microsphere injection, ex vivo confocal imaging of TMs); type: in vivo, Brown Norway rats; conditions: glaucomatous eyes; 1 μM, 100 μL, two subconjunctival injections
Procedure: as §1

[4] = tested on: trabecular cells; test: Trabecular cell apoptosis by TUNEL-labeling in rat glaucoma model; type: in vivo, Brown Norway rats; conditions: glaucoma eyes treated vs untreated
Procedure: (§2) Eyes were conditioned into cryosections and assessed for apoptosis using TUNEL-labeling. TM was identified in each cryosections as a pigmented slim tissue on the posterior sclera-cornea beside the iris root and just above the endothelial Schlemm's canals.
Investigations were conducted in order to study mechanisms involved in the NBI-74330-related decrease in IOP. Aqueous humor outflow was measured by in vivo fluorophotometry (FIG. 4A) and the trabecular aqueous outflow evaluated by fluorescent microsphere injection and ex vivo confocal imaging of TMs (data not shown). […] This decrease in trabecular outflow facility is similar to what is observed during hypertensive POAG in humans. […] In parallel, rat TM tissues were assessed for cellularity and apoptosis by immunohistofluorescence and TUNEL-labeling.

[5] = tested on: retinal ganglion cells; test: Apoptosis of Schlemm cells, retinal cells and retinal ganglion cells by TUNEL-labeling in rat glaucoma model; type: in vivo, Brown Norway rats
Description: as §2
Moreover, NBI-related reduction in IOP was associated with a decrease in retinal ganglion cell apoptosis as assessed by TUNEL-labeling (4.01±0.86, 11.11±3.62, and 5.73±1.15 apoptotic retinal ganglion cells/mm for control eyes, untreated glaucomatous eyes, and NBI-treated glaucomatous eyes, respectively; P<0.05 between each group).

[6] = glaucoma eyes treated vs untreated

SMILES	effect on IOP in control (nonglaucomatous, non-operated) eyes [1]	effect on IOP in control (nonglaucomatous, non-operated) eyes ([1]; listed as AMD-3100)	effect on IOP in glaucomatous eyes (CXCR4 antagonist comparison) ([1]; glaucomatous eyes (n=20))	effect on IOP in glaucomatous eyes (CXCR4 antagonist comparison) ([1]; glaucomatous eyes (n=20), listed as AMD-3100)	aqueous humor outflow (AHO) [2]	percent effective filtration length (PEFL), trabecular filtrating surface [3]	trabecular cell apoptosis (TUNEL) [4]	trabecular cell apoptosis (TUNEL) ([4]; listed as NBI-74330)	effect on IOP in control (nonglaucomatous, non-operated) eyes ([1]; listed as NBI-74330)	duration of reduction in IOP ([1]; glaucoma eyes, one single subconjunctival injection, 1 μM, p<0.001) [days]	IOP after a second injection ([1]; glaucoma eyes, second subconjunctival injection 4 days after the first one)	time course of IOP lowering after a single injection ([1]; glaucoma eyes, single subconjunctival injection 1 μM, 100 μl)	duration of decrease in IOP ([1]; glaucoma eyes, two subconjunctival injections, 1 μM, p<0.001) [days]	dose dependence of IOP reduction ([1]; glaucomatous eyes (n=20), FIG. 2)	effect on IOP in glaucoma eyes ([1]; surgically-induced elevated IOP, subconjunctival injection 1 μM, 100 μl)	retinal ganglion cell apoptosis (TUNEL) ([5]; NBI-treated glaucomatous eyes, control eyes 4.01±0.86, untreated glaucomatous eyes 11.11±3.62, P<0.05)	TUNEL labeling of endothelial Schlemm cells [5, 6]	TUNEL labeling of retinal cells (inner nuclear layer and ganglion cell layer) [5, 6]
c1cc(CN2CCCNCCNCCCNCC2)ccc1CN1CCCNCCNCCCNCC1 [AMD3100]	did not affect the IOP; also recorded: had no effect on the basal IOP level	had any effect on IOP	did not affect the IOP	did not influence IOP														
CCOc1ccc(-n2c(C(C)N(Cc3cccnc3)C(=O)Cc3ccc(F)c(C(F)(F)F)c3)nc3ncccc3c2=O)cc1 (stereo not shown) [NBI74330]	did not influence the IOP; also recorded: had no effect on the basal IOP level				AHO was improved; also recorded: aqueous humor outflow impairment was significantly reversed	significantly improved	Apoptosis was higher in trabecular cells of untreated glaucoma eyes than in glaucoma eyes treated with NBI74330	Trabecular apoptosis was reversed; also recorded: significantly reduced the amount of apoptotic TCs	had any effect on IOP	3	a significantly low IOP was maintained until the end of the experiments	significant the 2nd to the 5th day after the treatment, reaching the average IOP level of control eyes	12	reduced the IOP in glaucomatous eyes (n=20) in a dose-dependent manner	induced an IOP lowering	5.73±1.15 apoptotic retinal ganglion cells/mm	more TUNEL labeling in the untreated glaucoma eyes than in glaucoma eyes treated with NBI74330	more TUNEL labeling in the untreated glaucoma eyes than in glaucoma eyes treated with NBI74330
